From patent US20140256771A1, “COMPOUNDS THAT MODULATE INTRACELLULAR CALCIUM” (CalciMedica, Inc., priority 2011, published 2014) come the findings set out here.

Like-named read-outs stand apart in the source and are kept apart here.

One assay has as its system RBL-2H3 cells. In words: Fluorescence-based assay of store-operated calcium entry in RBL-2H3 cells. It counts as cell-based, rat. Further details: key to RBL-2H3 (IC50, μmol): A < 0.6 μmol; 0.6 μmol ≦ B ≦ 1.2 μmol; C > 1.2 μmol; — = no fit. Particulars: thapsigargin store depletion, 50% inhibition of Upslope; for IC50: Rattus norvegicus, RBL-2H3, read-out: RBL-2H3 (IC50, μmol). As to the method: B. Fluorescence-based Assay of Store-Operated Calcium Entry in RBL-2H3Cells.
RBL-2H3 cells are obtained from ATCC and maintained in complete medium with 10% FBS at 37° C./6% CO2.
The day prior to performing the assay, RBL-2H3 cells are plated in 50 μL of complete medium in a 384 well plate. Cells are grown at 37° C./6% CO2 overnight and grow to 50-60% confluence by the next day. On the assay day, 1.5 μM Fluo-4-AM dye (Invitrogen) in complete medium is added and incubated for 1 hour at RT. Cells are washed twice in Ca^2+-free HBSS buffer and 35 μL Ca^2+-free HBSS buffer is added to each well. 10 μL of a test compound prepared in a Ca^2+-free HBSS solution at 4.5× of the desired concentration is added to a well and incubated for 5 minutes at RT. 10 μL of thapsigargin prepared in a Ca^2+-free HBSS solution at 5.5× of the desired concentration (5.5 uM) is added to each well and incubated for an additional 25 minutes. The initial baseline fluorescence signal is measured with a FLIPR^384 (Molecular Devices) plate reader. 5 μL of 12× calcium in HBSS (12 mM) is added and changes in cellular fluorescence are measured with the FLIPR^384 plate reader. In each well, the change in the fluorescent signal as a function of time due to calcium entry into the cell is determined by calculating the difference between the fluorescent signal measured 7 seconds after calcium addition and the initial baseline fluorescence signal at time zero (t=0). This parameter is designated Upslope. The IC50 value is calculated as the concentration at which 50% of the Upslope is inhibited.

Another assay concerns the target T1, Orai1/STIM1 (Homo sapiens, UniProt Q96D31).
T1 construct: expressed in transfected cells; host or cells: HEK-293
In words: Fluorescence-based assay of store-operated calcium entry in Orai1/STIM1 stable cells. The format is cell-based. As to conditions: HEK-293 cells stably expressing human STIM1 and Orai1, 50% inhibition of Peak-Basal fluo-4 signal; for IC50: read-out: Orai1/STIM1 (IC50, μmol). The procedure:
A. Fluorescence-based Assay of Store-Operated Calcium Entry in Orai1/STIM1 Stable Cells.
Cells stably expressing recombinant human STIM1 and Orai1 are generated by transfecting a human Orai1 expression plasmid (pcDNA3.1-Orai1-cmyc) into HEK-293 cells stably overexpressing human STIM1 (Roos et al. 2005 JCB 169(3): 435-445). Colonies of cells stably expressing both STIM1 and Orai1 proteins are selected and then subcloned by limiting dilution. Cells were cultured at 37° C./6% CO2 in complete medium with 10% FBS and appropriate selection markers.
The day prior to performing the assay Orai1/STIM1 stable cells are plated in 50 μL of complete medium at 90-95% confluence in a 384 well plate. Cells are grown at 37° C./6% CO2 overnight. On the day of the assay, 1.5 μM fluo-4-AM (Invitrogen) in complete medium is added to the cells, which are then incubated for 1 hour at RT. Cells are washed once in Ca^2+-free HBSS (Hank's buffered saline solution) and 35 μl of Ca^2+-free HBSS is added to each well. Test compounds are added to wells in a 10 μL Ca^2+-free HBSS solution, prepared at 4.5× the desired final concentration, and incubated for 30 minutes at RT. The initial baseline fluorescence signal is then measured with a FLIPR^384 (Molecular Devices) plate reader. Calcium entry is initiated by adding 5 μl of 10× CaCl2 (10 mM) in HBSS, and changes in cellular fluorescence are measured with the FLIPR^384 plate reader. In each well, the magnitude of the fluorescence signal as a result of calcium entry into the cell is determined by calculating the difference between the peak fluorescence signal measured after calcium addition and the initial baseline fluorescence signal (designated Peak-Basal). IC50 values are typically calculated as the concentration that inhibited 50% of the Peak-Basal signal (Table A).

T1 sequence (Q96D31 whole entry): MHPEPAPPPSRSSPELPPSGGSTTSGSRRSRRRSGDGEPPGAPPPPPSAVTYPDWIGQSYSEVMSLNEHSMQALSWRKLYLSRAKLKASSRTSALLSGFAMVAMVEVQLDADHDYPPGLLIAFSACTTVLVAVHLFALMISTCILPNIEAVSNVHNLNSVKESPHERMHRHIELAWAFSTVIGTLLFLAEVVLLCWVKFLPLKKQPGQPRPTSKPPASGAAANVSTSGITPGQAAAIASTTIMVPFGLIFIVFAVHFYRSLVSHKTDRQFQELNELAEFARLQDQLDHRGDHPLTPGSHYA

Turning to `Cn1nc(C(F)(F)F)cc1-c1ccc(NCc2c(F)cccc2F)cc1F`, the IC50 in the assay with RBL-2H3 cells (Table iii) and on Orai1/STIM1 (Table iii) was below 0.6 µM in each case.
As to `Cn1nc(C(F)(F)F)cc1-c1ccc(NCc2ccccc2F)cc1F`, the IC50 with RBL-2H3 cells (Table iii) and at Orai1/STIM1 (Table iii) was below 0.6 µM in each case.
With `Cc1cccc(F)c1CNc1ccc(-c2cc(C(F)(F)F)nn2C)c(F)c1`, the IC50 in the assay on RBL-2H3 cells (Table iii) and on Orai1/STIM1 (Table iii) was below 0.6 µM throughout.
Regarding `Cn1nc(C(F)(F)F)cc1-c1ccc(NCc2c(F)cncc2F)cc1`, the IC50 with RBL-2H3 cells (Table iii) and on Orai1/STIM1 (Table iii) was below 0.6 µM in each case.
Take `Fc1cccc(F)c1CNc1ccc(-n2nc(C(F)(F)F)cc2C(F)(F)F)cc1`: the IC50 with RBL-2H3 cells (Table iii) is below 0.6 µM; on Orai1/STIM1 (Table iii), 0.6 to 1.2 µM.
Regarding `Fc1ccccc1CNc1ccc(-n2nc(C(F)(F)F)cc2C(F)(F)F)cc1`, the IC50 in the assay on RBL-2H3 cells (Table iii) and at Orai1/STIM1 (Table iii) was below 0.6 µM each time.
In the case of `Fc1cnccc1CNc1ccc(-n2nc(C(F)(F)F)cc2C(F)(F)F)cc1`, the IC50 in the assay with RBL-2H3 cells (Table iii) is below 0.6 µM; at Orai1/STIM1 (Table iii), 0.6 to 1.2 µM.
The matching figures for `Fc1cncc(F)c1CNc1ccc(-n2nc(C(F)(F)F)cc2C(F)(F)F)cc1`: below 0.6 µM and 0.6 to 1.2 µM.
On to `Cc1cc2c(cc1-c1ccc(NCc3c(F)cccc3F)cc1)OC(F)(F)O2`, for which the figures for the IC50 with RBL-2H3 cells (Table iii) and on Orai1/STIM1 (Table iii) were below 0.6 µM and above 1.2 µM, respectively.
As to `Cc1cc2c(cc1-c1ccc(NCc3ccccc3F)cc1)OC(F)(F)O2`, the IC50 with RBL-2H3 cells (Table iii) was below 0.6 µM; at Orai1/STIM1 (Table iii) it was above 1.2 µM.
The corresponding values for `Cc1cc2c(cc1-c1ccc(NCc3c(F)cncc3F)cc1)OC(F)(F)O2` are below 0.6 µM and below 0.6 µM.
For `Cc1cc2c(cc1-c1ccc(NCc3ccncc3F)cc1)OC(F)(F)O2`, the IC50 with RBL-2H3 cells (Table iii) is below 0.6 µM; on Orai1/STIM1 (Table iii) it was 0.6 to 1.2 µM.
The corresponding values for `Cc1cc2c(cc1-c1ccc(NCc3cncc(F)c3)cc1)OC(F)(F)O2` are below 0.6 µM and 0.6 to 1.2 µM.
The corresponding values for `Cc1cc2c(cc1-c1ccc(NCc3snnc3F)cc1)OC(F)(F)O2` are below 0.6 µM and 0.6 to 1.2 µM.
`Cc1cc2c(cc1-c1ccc(NCc3c(F)cccc3F)cc1F)OC(F)(F)O2`: the IC50 with RBL-2H3 cells (Table iii) was below 0.6 µM; at Orai1/STIM1 (Table iii) it was above 1.2 µM.
The matching figures for `Cc1cc2c(cc1-c1ccc(NCc3ccccc3F)cc1F)OC(F)(F)O2`: below 0.6 µM and above 1.2 µM.
The corresponding values for `Cc1cc2c(cc1-c1ccc(NCc3c(F)cncc3F)cc1F)OC(F)(F)O2` are below 0.6 µM and 0.6 to 1.2 µM.
The matching figures for `Cn1nc(C(F)(F)F)cc1-c1ccc(NCc2c(F)ccc(F)c2F)cc1F`: below 0.6 µM and below 0.6 µM.
Turning to `Cc1ccccc1CNc1ccc(-c2cc(C(F)(F)F)nn2C)c(F)c1`, the IC50 with RBL-2H3 cells (Table iii) and at Orai1/STIM1 (Table iii) was below 0.6 µM in each case.
In the case of `Cn1nc(C(F)(F)F)cc1-c1ccc(NCc2c(F)cc(F)cc2F)cc1`, the IC50 with RBL-2H3 cells (Table iii) and at Orai1/STIM1 (Table iii) was below 0.6 µM each time.
As to `Cn1nc(C(F)(F)F)cc1-c1ccc(NCc2c(F)ccc(F)c2F)cc1`, the IC50 in the assay with RBL-2H3 cells (Table iii) and on Orai1/STIM1 (Table iii) was below 0.6 µM each time.
Consider `Cn1nc(C(F)(F)F)cc1-c1ccc(NCc2c(Cl)cnn2C)cc1`, for which the values for the IC50 with RBL-2H3 cells (Table iii) and on Orai1/STIM1 (Table iii) were below 0.6 µM and 0.6 to 1.2 µM, respectively.
The matching figures for `Cc1cc(C(F)(F)F)nn1-c1ccc(NCc2ccccc2F)cc1`: below 0.6 µM and below 0.6 µM.
The corresponding values for `Cc1cc(C(F)(F)F)nn1-c1ccc(NCc2c(F)cccc2F)cc1` are below 0.6 µM and below 0.6 µM.
The matching figures for `Cc1cc(C(F)(F)F)nn1-c1ccc(NCc2ccc(F)cc2F)cc1`: below 0.6 µM and 0.6 to 1.2 µM.
On to `Cc1cc(C(F)(F)F)nn1-c1ccc(NCc2c(F)cncc2F)cc1`, for which the IC50 is below 0.6 µM with RBL-2H3 cells (Table iii) and 0.6 to 1.2 µM on Orai1/STIM1 (Table iii).
The matching figures for `Cc1cc(C(F)(F)F)nn1-c1ccc(NCc2c(F)ccc(F)c2F)cc1`: below 0.6 µM and below 0.6 µM.
The matching figures for `Cc1cc(C(F)(F)F)nn1-c1ccc(NCc2c(F)cc(F)cc2F)cc1`: below 0.6 µM and below 0.6 µM.
The matching figures for `Cc1nc(C(F)(F)F)cn1-c1ccc(NCc2ccccc2F)cc1F`: below 0.6 µM and below 0.6 µM.
Regarding `Cc1nc(C(F)(F)F)cn1-c1ccc(NCc2c(F)cccc2F)cc1F`, the IC50 in the assay on RBL-2H3 cells (Table iii) and on Orai1/STIM1 (Table iii) was below 0.6 µM throughout.
For the compound `Cn1nc(C(F)(F)F)cc1-c1ccc(NC(=O)c2c(F)cncc2F)cc1F`, the IC50 in the assay on RBL-2H3 cells (Table iv) and at Orai1/STIM1 (Table iv) was below 0.6 µM in each case.
As for `Cn1nc(C(F)(F)F)cc1-c1ccc(NC(=O)c2ccccc2F)c(F)c1`, the “RBL-2H3 (IC50, μmol)” value with RBL-2H3 cells (Table iv) is on record as “—”. Further, the “Orai1/STIM1 (IC50, μmol)” value on Orai1/STIM1 (Table iv) is on record as “Max inh. <50%”.
Regarding `Cc1cc(C(F)(F)F)nn1-c1ccc(NC(=O)c2c(F)cc(F)cc2F)cc1`, the IC50 with RBL-2H3 cells (Table iv) is below 0.6 µM; on Orai1/STIM1 (Table iv), 0.6 to 1.2 µM.
For the compound `Cc1nc(C(F)(F)F)cn1-c1ccc(NC(=O)c2ccccc2F)cc1F`, the IC50 in the assay with RBL-2H3 cells (Table iv) is below 0.6 µM; on Orai1/STIM1 (Table iv), above 1.2 µM.
The matching figures for `Cc1nc(C(F)(F)F)cn1-c1ccc(NC(=O)c2c(F)cccc2F)cc1F`: 0.6 to 1.2 µM and above 1.2 µM.
The corresponding values for `Cc1nc(C(F)(F)F)cn1-c1ccc(NC(=O)c2c(F)cc(F)cc2F)cc1F` are below 0.6 µM and above 1.2 µM.
The corresponding values for `Cc1nc(C(F)(F)F)cn1-c1ccc(NC(=O)c2c(F)cncc2F)cc1F` are 0.6 to 1.2 µM and above 1.2 µM.
For `Cc1nc(C(F)(F)F)cn1-c1ccc(NC(=O)c2c(F)ccc(F)c2F)cc1F`, the IC50 with RBL-2H3 cells (Table iv) is below 0.6 µM; at Orai1/STIM1 (Table iv), above 1.2 µM.
The corresponding values for `Cc1nc(C(F)(F)F)cn1-c1ccc(NC(=O)c2ccccc2F)cc1` are below 0.6 µM and 0.6 to 1.2 µM.
The corresponding values for `Cc1nc(C(F)(F)F)cn1-c1ccc(NC(=O)c2c(F)cccc2F)cc1` are below 0.6 µM and above 1.2 µM.
The corresponding values for `Cc1nc(C(F)(F)F)cn1-c1ccc(NC(=O)c2c(F)cc(F)cc2F)cc1` are below 0.6 µM and above 1.2 µM.
With `Cc1nc(C(F)(F)F)cn1-c1ccc(NC(=O)c2c(F)ccc(F)c2F)cc1`, the IC50 with RBL-2H3 cells (Table iv) was below 0.6 µM; at Orai1/STIM1 (Table iv) it was above 1.2 µM.
The matching figures for `Cc1nn(C(F)F)cc1-c1ccc(NC(=O)c2ccccc2F)cc1`: 0.6 to 1.2 µM and 0.6 to 1.2 µM.
The corresponding values for `Cc1nn(C(F)F)cc1-c1ccc(NC(=O)c2c(F)cccc2F)cc1` are below 0.6 µM and below 0.6 µM.
Take `Cc1nn(C(F)F)cc1-c1ccc(NC(=O)c2c(F)cc(F)cc2F)cc1`: the IC50 with RBL-2H3 cells (Table iv) and at Orai1/STIM1 (Table iv) was below 0.6 µM each time.
On to `Cc1cccc(F)c1C(=O)Nc1ccc(-c2cn(C(F)F)nc2C)cc1`, for which the results for the IC50 with RBL-2H3 cells (Table iv) and on Orai1/STIM1 (Table iv) were below 0.6 µM and 0.6 to 1.2 µM, respectively.
The corresponding values for `Cc1nn(C(F)F)cc1-c1ccc(NC(=O)c2c(F)ccc(F)c2F)cc1` are below 0.6 µM and below 0.6 µM.
The corresponding values for `Cc1ccccc1C(=O)Nc1ccc(-c2cn(C(F)F)nc2C)c(F)c1` are 0.6 to 1.2 µM and below 0.6 µM.
